Active and inactive are the calls of the source. The calls are words filed in the database; no cut-off is given here.
Tests used:
C2C12 = experiment: Activation of AMPK pathway in mouse C2C12 cells assessed as increase in AMPK phosphorylation at 10 to 20 uM after 60 mins by Western blot analysis; assay type: cell-based; settings: filed as activator, dose microM 10-20, time 60.0 min
3T3-L1 = experiment: Induction of glucose uptake in mouse 3T3-L1 adipocytes assessed as [3H]2-deoxy-D-glucose uptake incubated for 1 hr followed by [3H]2-deoxy-D-glucose addition by fluorescence microscopic method; assay type: functional; settings: read-out: ED50 (the source's name)

SMILES | Activity (C2C12) | EC50 (3T3-L1) [µM]
CC1(C)CC[C@]2(C(=O)O[C@@H]3O[C@H](CO)[C@@H](O)[C@H](O)[C@H]3O)CC[C@]3(C)C(=CC[C@@H]4[C@@]5(C)C[C@@H](O)[C@H](OC(=O)c6cc(O)c(O)c(O)c6)[C@](CO)(COC(=O)c6cc(O)c(O)c(O)c6)[C@@H]5CC[C@]43C)[C@@H]2C1 | Active | 12.1
CC1(C)CC[C@]2(C(=O)O[C@@H]3O[C@H](CO)[C@@H](O)[C@H](O)[C@H]3O)CC[C@]3(C)C(=CC[C@@H]4[C@@]5(C)C[C@@H](O)[C@H](OC(=O)c6cc(O)c(O)c(O)c6)C6(COC(=O)c7cc(O)c(O)c(O)c7-c7c(cc(O)c(O)c7O)C(=O)OC6)[C@@H]5CC[C@]43C)[C@@H]2C1 |  | 10.6
CC1(C)CC[C@]2(C(=O)O)CC[C@]3(C)C(=CC[C@@H]4[C@@]5(C)C[C@@H](O)[C@H](O)C(CO)(CO)[C@@H]5CC[C@]43C)[C@@H]2C1 |  | 6.89

— ChEMBL document CHEMBL4699514, “Glucose Uptake-Stimulating Galloyl Ester Triterpenoids from Castanopsis sieboldii” (2020)
